Test [1] addresses CDK9/Cyclin T1 (Homo sapiens (Human), UniProt P50750). In words: CDK9 enzyme assay (LANCE ULight TR-FRET kinase assay). To be noted: 1000 μM ATP, 100 nM ULight MBP, kinase reaction 1 hour. The format is biochemical. A digest of the protocol:
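TR-FRET readout (ex 320 nm; em 615/665 nm) after 1 h detection with 0.5 nM europium anti-phospho-MBP antibody in 20 mM EDTA stop buffer. Preceding 1 h kinase step: CDK9/Cyclin T1, ULight-MBP substrate at 100 nM, ATP at 1000 μM, compound pre-diluted in DMSO then buffer.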
In general terms: In TR-FRET formats the signal depends on donor and acceptor labels being close together.

Test [2] relates to H929 cells. In words: Cell viability assay (Cell TiterGlo). The format is cell-based. To be noted: Cell TiterGlo luminescence. As for the experimental part:
The cell viability assay was performed using H929 cells. Cells were seeded in 96-well plates at 10,000 cells/well and, after overnight incubation, treated with compounds in a dose response of 3-fold dilutions from 10 μM to 0.005 μM ([…], 0.1% final DMSO concentration). After 24 hours at 37° C., cell viability was measured using Cell TiterGlo reagent (Promega) with a luminescence reader.
(ATP-based viability assays read luminescence as a measure of living cells.)

The mark [3] stands for this setting: Homo sapiens, NCI-H929, 24 hours at 37° C.

The values that follow come from patent US9328112B2, “Tetracyclic CDK9 kinase inhibitors” (AbbVie Inc., priority 2014, dated 2016).

A word on the IC50: it is the concentration that inhibits the measured activity by half. Higher therefore signals a need for much substance.

Sequence of CDK9/Cyclin T1 (P50750 whole entry): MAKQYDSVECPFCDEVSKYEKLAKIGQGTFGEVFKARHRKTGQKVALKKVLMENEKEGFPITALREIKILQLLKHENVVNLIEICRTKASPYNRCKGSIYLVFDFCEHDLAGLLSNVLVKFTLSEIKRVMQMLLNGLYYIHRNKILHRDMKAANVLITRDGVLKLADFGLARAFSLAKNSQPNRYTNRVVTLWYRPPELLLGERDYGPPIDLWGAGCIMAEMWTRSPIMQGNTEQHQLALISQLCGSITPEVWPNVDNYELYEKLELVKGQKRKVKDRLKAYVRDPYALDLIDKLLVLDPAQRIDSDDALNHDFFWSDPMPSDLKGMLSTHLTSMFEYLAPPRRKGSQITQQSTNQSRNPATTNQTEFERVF
Sequence of CDK9/Cyclin T1 (O60563 whole entry partner): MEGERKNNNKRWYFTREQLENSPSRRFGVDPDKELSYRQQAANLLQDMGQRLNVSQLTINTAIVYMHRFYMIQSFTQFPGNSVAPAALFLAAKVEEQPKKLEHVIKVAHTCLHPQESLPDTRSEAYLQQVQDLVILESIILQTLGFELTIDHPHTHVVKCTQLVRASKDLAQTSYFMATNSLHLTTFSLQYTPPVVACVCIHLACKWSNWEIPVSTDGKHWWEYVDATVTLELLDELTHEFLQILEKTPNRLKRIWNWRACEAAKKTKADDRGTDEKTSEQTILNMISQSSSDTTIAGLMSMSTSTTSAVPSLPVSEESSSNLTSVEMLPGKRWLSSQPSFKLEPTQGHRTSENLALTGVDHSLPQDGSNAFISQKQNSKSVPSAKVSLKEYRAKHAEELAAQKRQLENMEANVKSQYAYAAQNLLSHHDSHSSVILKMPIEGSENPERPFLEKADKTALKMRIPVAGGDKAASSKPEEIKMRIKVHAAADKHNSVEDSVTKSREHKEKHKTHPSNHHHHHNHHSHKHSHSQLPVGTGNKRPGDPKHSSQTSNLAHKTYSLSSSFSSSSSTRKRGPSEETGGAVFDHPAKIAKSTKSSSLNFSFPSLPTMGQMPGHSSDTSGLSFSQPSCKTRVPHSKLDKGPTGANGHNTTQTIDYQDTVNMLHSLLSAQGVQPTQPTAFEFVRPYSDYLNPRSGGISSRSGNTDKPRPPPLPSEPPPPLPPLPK

For `CN1Cc2c(C3=CCNCC3)[nH]c3ncc(F)c(c23)-c2cc(F)ccc21` [Example 48, 1,10-difluoro-7-methyl-5-(1,2,3,6-tetrahydropyridin-4-yl)-6,7-dihydro-4H-3,4,7-triazadibenzo[cd,f]azulene], the values for the IC50 in test [1] and in test [2] (setting [3]) were 0.027 µM and 0.02 µM, respectively.

With `CCCN1Cc2c(C3=CCN(S(C)(=O)=O)CC3)[nH]c3nccc(c23)-c2cc(F)ccc21` [Example 6, 10-fluoro-5-[1-(methylsulfonyl)-1,2,3,6-tetrahydropyridin-4-yl]-7-propyl-6,7-dihydro-4H-3,4,7-triazadibenzo[cd,f]azulene], the concentration for half-maximal inhibition (IC50) worked out at 0.34 µM in test [1] and 2.1 µM in test [2] (setting [3]).

In the case of `CN(C)C(=O)CN1CC=C(c2[nH]c3nccc4c3c2CN(C)c2ccc(F)cc2-4)C(C)(C)C1` [Example 114, 2-[4-(10-fluoro-7-methyl-6,7-dihydro-4H-3,4,7-triazadibenzo[cd,f]azulen-5-yl)-3,3-dimethyl-3,6-dihydropyridin-1(2H)-yl]-N,N-dimethylacetamide], the IC50 amounted to 0.87 µM in test [1] and 3.4 µM in test [2] (setting [3]).

Consider `CN1Cc2c(C3=CCN(CCS(=O)(=O)N(C)C)CC3)[nH]c3nccc(c23)-c2cc(F)ccc21` [Example 178, 2-[4-(10-fluoro-7-methyl-6,7-dihydro-4H-3,4,7-triazadibenzo[cd,f]azulen-5-yl)-3,6-dihydropyridin-1(2H)-yl]-N,N-dimethylethanesulfonamide], for which the IC50 in test [1] is 0.025 µM; in test [2] (setting [3]), 0.04 µM.

Take `CN1Cc2c(C3=CC4CCCC(C3)N4CC(=O)N3CCC[C@H]3CO)[nH]c3nccc(c23)-c2cc(F)ccc21` (stereo partly drawn) [Example 104, 2-[3-(10-fluoro-7-methyl-6,7-dihydro-4H-3,4,7-triazadibenzo[cd,f]azulen-5-yl)-9-azabicyclo[3.3.1]non-2-en-9-yl]-1-[(2S)-2-(hydroxymethyl)pyrrolidin-1-yl]ethanone]: the 50% inhibitory concentration (IC50) in test [1] came out at 0.057 µM; in test [2] (setting [3]), 0.065 µM.

For `CN1Cc2c(C3=CCN(CC(=O)N4CCC[C@H]4CO)CC3)[nH]c3nccc(c23)-c2cc(F)c(F)cc21` [Example 147, 2-[4-(9,10-difluoro-7-methyl-6,7-dihydro-4H-3,4,7-triazadibenzo[cd,f]azulen-5-yl)-3,6-dihydropyridin-1(2H)-yl]-1-[(2S)-2-(hydroxymethyl)pyrrolidin-1-yl]ethanone], the IC50 in test [1] was determined as 0.045 µM; in test [2] (setting [3]) it was 0.006 µM.

On to `CN1Cc2c(C3=CCN(S(C)(=O)=O)CC3)[nH]c3ncc(F)c(c23)-c2ccccc21` [Example 161, 1-fluoro-7-methyl-5-[1-(methylsulfonyl)-1,2,3,6-tetrahydropyridin-4-yl]-6,7-dihydro-4H-3,4,7-triazadibenzo[cd,f]azulene], for which the figures for the half-inhibitory concentration (IC50) in test [1] and in test [2] (setting [3]) were 0.04 µM and 0.065 µM, respectively.

On to `CN1Cc2c(C3=CCN(CC(=O)N4CC(O)C4)CC3(C)C)[nH]c3nccc(c23)-c2cc(F)ccc21` [Example 117, 2-[4-(10-fluoro-7-methyl-6,7-dihydro-4H-3,4,7-triazadibenzo[cd,f]azulen-5-yl)-3,3-dimethyl-3,6-dihydropyridin-1(2H)-yl]-1-(3-hydroxyazetidin-1-yl)ethanone], for which the IC50 in test [1] was determined as 0.96 µM; in test [2] (setting [3]), 2.4 µM.

In the case of `CN(CC(O)CO)C(=O)CN1CC2C=C(c3[nH]c4nccc5c4c3CN(C)c3ccc(F)cc3-5)CC2C1` (stereo not drawn) [Example 85, N-(2,3-dihydroxypropyl)-2-[5-(10-fluoro-7-methyl-6,7-dihydro-4H-3,4,7-triazadibenzo[cd,f]azulen-5-yl)-3,3a,4,6a-tetrahydrocyclopenta[c]pyrrol-2(1H)-yl]-N-methylacetamide], the IC50 in test [1] was 0.099 µM; in test [2] (setting [3]), 0.25 µM.

As for `CN1Cc2c(C3=CCCN(CC(=O)N4CC(O)C4)CC3)[nH]c3nccc(c23)-c2cc(F)ccc21` [Example 91, 2-[4-(10-fluoro-7-methyl-6,7-dihydro-4H-3,4,7-triazadibenzo[cd,f]azulen-5-yl)-2,3,6,7-tetrahydro-1H-azepin-1-yl]-1-(3-hydroxyazetidin-1-yl)ethanone], the IC50 was 0.18 µM in test [1] and 0.22 µM in test [2] (setting [3]).

On to `COCCS(=O)(=O)N1CC2C=C(c3[nH]c4nccc5c4c3CN(C)c3ccc(F)cc3-5)CC2C1` (stereo not drawn) [Example 69, 10-fluoro-5-{2-[(2-methoxyethyl)sulfonyl]-1,2,3,3a,4,6a-hexahydrocyclopenta[c]pyrrol-5-yl}-7-methyl-6,7-dihydro-4H-3,4,7-triazadibenzo[cd,f]azulene], for which the figures for the concentration for half-maximal inhibition (IC50) in test [1] and in test [2] (setting [3]) were 0.08 µM and 0.095 µM, respectively.

As to `CN1Cc2c(C3=C[C@H]4CC[C@@H](C3)N4CC(=O)O)[nH]c3nccc(c23)-c2cc(F)ccc21` [Example 58, [(1R,5S)-3-(10-fluoro-7-methyl-6,7-dihydro-4H-3,4,7-triazadibenzo[cd,f]azulen-5-yl)-8-azabicyclo[3.2.1]oct-2-en-8-yl]acetic acid], the IC50 worked out at 0.17 µM in test [1] and 1.4 µM in test [2] (setting [3]).

Turning to `CN1Cc2c(C3=CCC(C(=O)N4CC(O)C4)CC3)[nH]c3nccc(c23)-c2cc(F)ccc21` (stereo not drawn) [Example 51, [4-(10-fluoro-7-methyl-6,7-dihydro-4H-3,4,7-triazadibenzo[cd,f]azulen-5-yl)cyclohex-3-en-1-yl](3-hydroxyazetidin-1-yl)methanone], the IC50 stood at 0.11 µM in test [1] and 0.47 µM in test [2] (setting [3]).

On to `CN1Cc2c(C3=CCN(CC(=O)O)CC3(C)C)[nH]c3nccc(c23)-c2cc(F)ccc21` [Example 111, [4-(10-fluoro-7-methyl-6,7-dihydro-4H-3,4,7-triazadibenzo[cd,f]azulen-5-yl)-3,3-dimethyl-3,6-dihydropyridin-1(2H)-yl]acetic acid], for which the IC50 in test [1] was 1.6 µM; in test [2] (setting [3]), 5.5 µM.

Take `CN1Cc2c(C3=CCCN(CC(=O)N4CCC[C@H]4CO)C3)[nH]c3nccc(c23)-c2cc(F)ccc21` [Example 120, 2-[5-(10-fluoro-7-methyl-6,7-dihydro-4H-3,4,7-triazadibenzo[cd,f]azulen-5-yl)-3,6-dihydropyridin-1(2H)-yl]-1-[(2S)-2-(hydroxymethyl)pyrrolidin-1-yl]ethanone]: the 50% inhibitory concentration (IC50) is 0.48 µM in test [1] and 2.1 µM in test [2] (setting [3]).

Regarding `CN(C)C(=O)CN1CC=C(c2[nH]c3nccc4c3c2CCN(C)c2ccc(F)cc2-4)CC1` [Example 129, 2-[4-(8-fluoro-5-methyl-1,3,4,5-tetrahydro-1,5,12-triazabenzo[4,5]cycloocta[1,2,3-cd]inden-2-yl)-3,6-dihydropyridin-1(2H)-yl]-N,N-dimethylacetamide], the IC50 in test [1] turned out to be 0.067 µM; in test [2] (24 hours at 37° C.) it was 0.13 µM.

Turning to `CN(C)C(=O)CN1CC=C(c2[nH]c3nccc4c3c2CN(C)c2ncccc2-4)CC1` [Example 149, N,N-dimethyl-2-[4-(7-methyl-6,7-dihydro-4H-3,4,7,8-tetraazadibenzo[cd,f]azulen-5-yl)-3,6-dihydropyridin-1(2H)-yl]acetamide], the IC50 in test [1] amounted to 0.11 µM; in test [2] (setting [3]), 0.16 µM.

Turning to `CN1Cc2c(C3=CC4CCCC(C3)N4CC(=O)N3CC(O)C3)[nH]c3nccc(c23)-c2cc(F)ccc21` (stereo not drawn) [Example 105, 2-[3-(10-fluoro-7-methyl-6,7-dihydro-4H-3,4,7-triazadibenzo[cd,f]azulen-5-yl)-9-azabicyclo[3.3.1]non-2-en-9-yl]-1-(3-hydroxyazetidin-1-yl)ethanone], the results for the IC50 in test [1] and in test [2] (setting [3]) were 0.098 µM and 0.19 µM, respectively.

On to `CN1Cc2c(C3=CC4CNCC4C3)[nH]c3nccc(c23)-c2cc(F)ccc21` (stereo not drawn) [Example 59, 10-fluoro-5-(1,2,3,3a,4,6a-hexahydrocyclopenta[c]pyrrol-5-yl)-7-methyl-6,7-dihydro-4H-3,4,7-triazadibenzo[cd,f]azulene], for which the 50% inhibitory concentration (IC50) came to 0.088 µM in test [1] and 0.19 µM in test [2] (setting [3]).

As for `CN1Cc2c(C3=CCN(C4CCC(=CC#N)CC4)CC3)[nH]c3nccc(c23)-c2cc(F)ccc21` (stereo not drawn) [Example 173, {4-[4-(10-fluoro-7-methyl-6,7-dihydro-4H-3,4,7-triazadibenzo[cd,f]azulen-5-yl)-3,6-dihydropyridin-1(2H)-yl]cyclohexylidene}acetonitrile], the figures for the half-maximal inhibitory concentration (IC50) in test [1] and in test [2] (setting [3]) were 0.045 µM and 0.068 µM, respectively.

With `CN1Cc2c(C3=CCN([C@H]4CC[C@H](C(=O)O)CC4)CC3)[nH]c3ncc(F)c(c23)-c2ccccc21` [Example 181, trans-4-[4-(1-fluoro-7-methyl-6,7-dihydro-4H-3,4,7-triazadibenzo[cd,f]azulen-5-yl)-3,6-dihydropyridin-1(2H)-yl]cyclohexanecarboxylic acid], the concentration for half-maximal inhibition (IC50) is 0.063 µM in test [1] and 0.012 µM in test [2] (setting [3]).

With `CN1Cc2c(C3=CCC(N[C@@H](Cc4ccccc4)C(=O)O)CC3)[nH]c3nccc(c23)-c2cc(F)ccc21` (stereo partly drawn) [Example 35, N-[4-(10-fluoro-7-methyl-6,7-dihydro-4H-3,4,7-triazadibenzo[cd,f]azulen-5-yl)cyclohex-3-en-1-yl]-L-phenylalanine], the IC50 in test [1] stood at 0.061 µM; in test [2] (setting [3]) it was 0.091 µM.

On to `CN1Cc2c(C3=CC4CCCC(C3)N4C(=O)CC#N)[nH]c3nccc(c23)-c2cc(F)ccc21` (stereo not drawn) [Example 102, 3-[3-(10-fluoro-7-methyl-6,7-dihydro-4H-3,4,7-triazadibenzo[cd,f]azulen-5-yl)-9-azabicyclo[3.3.1]non-2-en-9-yl]-3-oxopropanenitrile], for which the figures for the concentration for half-maximal inhibition (IC50) in test [1] and in test [2] (setting [3]) were 0.044 µM and 0.623 µM, respectively.

For `CCOC(=O)C1CC=C(c2[nH]c3nccc4c3c2CN(C)c2ccc(F)cc2-4)CC1` (stereo not drawn) [Example 61, ethyl 4-(10-fluoro-7-methyl-6,7-dihydro-4H-3,4,7-triazadibenzo[cd,f]azulen-5-yl)cyclohex-3-ene-1-carboxylate], the IC50 in test [1] was 0.4 µM; in test [2] (setting [3]), 1.2 µM.
